From ChEMBL document CHEMBL1126498, “Heterocyclic inhibitors of human leukocyte elastase: 3-Hydroxypyridazopyrimidine, 3-hydroxypyridopyrimidine and 3-hydroxyquinazoline-2,4-1H,3H0dione derivatives” (Bioorg Med Chem Lett, 1993) come the findings set out here.

Calls of active or inactive are those of the source. The rule behind the calls is not given here.

Assay [1] concerns the target T1, Neutrophil elastase (Homo sapiens) (UniProt P08246).
T1 sequence (whole entry): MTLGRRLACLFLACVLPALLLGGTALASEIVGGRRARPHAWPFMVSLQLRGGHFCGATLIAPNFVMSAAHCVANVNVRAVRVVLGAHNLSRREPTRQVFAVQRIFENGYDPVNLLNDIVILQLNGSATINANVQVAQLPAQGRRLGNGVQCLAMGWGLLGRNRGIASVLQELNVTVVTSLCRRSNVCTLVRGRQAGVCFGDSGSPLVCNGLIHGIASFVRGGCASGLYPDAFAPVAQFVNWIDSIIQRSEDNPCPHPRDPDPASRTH
Nature of the assay: The bimolecular rate constant Kobs/[I] to inhibit human leukocyte elastase (HLE) was determined.

Assay [2] concerns the target T1, Neutrophil elastase (Homo sapiens). Nature of the assay: The bimolecular rate constant Kobs/[I] to inhibit human leukocyte elastase (HLE) was determined; IA denotes inactive.

Take `CCCCS(=O)(=O)On1c(=O)[nH]c2nccnc2c1=O`: the K obs / 1 in assay [1] came out at 20 M⁻¹ s⁻¹.

Consider `CCCCCS(=O)(=O)On1c(=O)[nH]c2ccccc2c1=O`, for which the K obs / 1 in assay [1] turned out to be 40 M⁻¹ s⁻¹.

Consider `O=c1[nH]c2nccnc2c(=O)n1OS(=O)(=O)c1ccccc1`, for which the “K obs / 1” value in assay [2] was “inactive”.

With `CCCOP(=O)(OCCC)On1c(=O)[nH]c2ccccc2c1=O`, in assay [1], the K obs / 1 is 3160 M⁻¹ s⁻¹.

In turn, `CCCCS(=O)(=O)On1c(=O)[nH]c2ccccc2c1=O` had a K obs / 1 in assay [1] of 180 M⁻¹ s⁻¹.

Turning to `CS(=O)(=O)On1c(=O)[nH]c2ccccc2c1=O`, in assay [2], the “K obs / 1” value is “inactive”.

`CC(C)CS(=O)(=O)On1c(=O)[nH]c2ccccc2c1=O` had a K obs / 1 in assay [1] of 170 M⁻¹ s⁻¹.

For the compound `CCCCS(=O)(=O)On1c(=O)[nH]c2cccnc2c1=O`, in assay [1], the K obs / 1 turned out to be 64 M⁻¹ s⁻¹.

`CCCCS(=O)(=O)On1c(=O)[nH]c2ccncc2c1=O` showed a K obs / 1 in assay [1] of 58 M⁻¹ s⁻¹.

Consider `CCCCOP(=O)(OCCCC)On1c(=O)[nH]c2ccccc2c1=O`, for which the K obs / 1 in assay [1] was 3870 M⁻¹ s⁻¹.

For `O=c1[nH]c2ccccc2c(=O)n1OS(=O)(=O)c1ccccc1`, the “K obs / 1” value in assay [2] was “inactive”.

Turning to `CS(=O)(=O)On1c(=O)[nH]c2nccnc2c1=O`, the “K obs / 1” value in assay [2] is “inactive”.
